Patent US8293724B2, “Therapeutic applications of fatty acid amide hydrolase inhibitors” (The United States of America, as represented by the …, priority 2007, dated 2012)

Legend:
[1] = biological target: T1, FAAH (Rattus norvegicus, UniProt P97612); assay: FAAH inhibition in vitro, crude rat brain homogenate with [3H]anandamide; assay type: biochemical
T1 construct: from tissue; host or cells: liver of SHR and WKY rats treated in vivo
T1 sequence (P97612 1-579): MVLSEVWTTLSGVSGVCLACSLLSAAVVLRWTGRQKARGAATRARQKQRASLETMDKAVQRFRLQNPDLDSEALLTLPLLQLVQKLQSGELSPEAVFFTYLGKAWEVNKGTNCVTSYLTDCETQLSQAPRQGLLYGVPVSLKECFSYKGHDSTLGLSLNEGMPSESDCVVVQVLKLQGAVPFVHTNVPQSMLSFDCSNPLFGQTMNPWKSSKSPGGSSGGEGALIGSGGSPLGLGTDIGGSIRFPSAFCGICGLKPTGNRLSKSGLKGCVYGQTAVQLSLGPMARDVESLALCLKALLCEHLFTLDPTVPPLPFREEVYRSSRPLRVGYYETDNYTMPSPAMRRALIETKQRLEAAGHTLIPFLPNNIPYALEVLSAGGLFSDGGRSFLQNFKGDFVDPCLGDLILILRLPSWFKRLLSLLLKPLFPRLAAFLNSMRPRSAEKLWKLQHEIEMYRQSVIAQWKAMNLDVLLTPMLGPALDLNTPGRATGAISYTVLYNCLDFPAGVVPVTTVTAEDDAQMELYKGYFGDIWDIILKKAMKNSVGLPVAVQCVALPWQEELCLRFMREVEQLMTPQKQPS
Description: This example describes a general method for assaying FAAH inhibition by the disclosed compounds and determining their IC50 values in vitro (Deutsch, D. G. and S. A. Chin, Biochem. Pharmacol. 46:791-796 (1993)). The indicated amount of each compound was preincubated in a buffer consisting of 300 μg of crude rat brain homogenate protein, 500 μg/ml fatty acid-free bovine serum albumin, in phosphate-buffered saline in a final volume of 1.0 ml, for 10 minutes at 37° C. Crude rat brain homogenate was obtained by decapitating female adult Sprague-Dawley rats, dissecting the desired tissue and homogenizing in five volumes of ice-cold TE (10 mM Tris-HCl, 1 mM EDTA, pH 7.6). Substrate ([…] anandamide+0.2 µCi of 221 Ci/mmol [^3H]anandamide ([arachidonyl-5,6,8,9,11,12,14,15-^3H]ethanolamide)) was then added and the samples incubated for 10 minutes. The reaction was quenched by the addition of chloroform:methanol (1:1) and enzyme activity was analyzed by TLC.

[2] = biological target: T2, FAAH (Mus musculus, UniProt O08914); assay: FAAH activity in brain and liver homogenates following in vivo administration; set-up: species or system mice
T2 construct: the brain and liver removed, and tissue homogenates prepared as described above; from tissue; host or cells: mouse brain and liver homogenates after in vivo dosing
T2 sequence (O08914 1-579): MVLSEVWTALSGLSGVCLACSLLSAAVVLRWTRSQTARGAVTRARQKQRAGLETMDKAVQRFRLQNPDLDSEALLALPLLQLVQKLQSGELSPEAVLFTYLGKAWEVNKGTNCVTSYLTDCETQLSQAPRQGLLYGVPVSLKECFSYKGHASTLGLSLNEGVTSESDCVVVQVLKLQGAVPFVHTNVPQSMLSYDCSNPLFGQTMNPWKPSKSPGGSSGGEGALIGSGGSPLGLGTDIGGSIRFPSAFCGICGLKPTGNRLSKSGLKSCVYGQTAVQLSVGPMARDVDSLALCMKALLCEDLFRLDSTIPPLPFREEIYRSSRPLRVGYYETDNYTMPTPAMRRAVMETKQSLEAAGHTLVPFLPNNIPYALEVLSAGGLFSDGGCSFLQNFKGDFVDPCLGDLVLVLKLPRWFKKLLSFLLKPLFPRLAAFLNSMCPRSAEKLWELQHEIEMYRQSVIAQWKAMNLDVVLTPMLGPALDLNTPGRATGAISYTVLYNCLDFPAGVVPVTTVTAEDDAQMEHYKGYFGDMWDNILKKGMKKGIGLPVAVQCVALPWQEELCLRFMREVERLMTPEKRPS
Description: For the experiments illustrated in FIG. 3, FAAH activity was assessed through a different method not requiring TLC separation, as described by Jonsson et al: Br. J. Pharmacol. 133:1263-1275, 1997. […] The mice were sacrificed one hour later, the brain and liver removed, and tissue homogenates prepared as described above. [^3H]Anandamide labeled on the ethanolamide moiety was added to the homogenate and incubated at 37° C. for 10 min. The homogenate was then extracted twice with chloroform:methanol 1:1 and the radioactivity in the aqueous phase (containing the released ethanolamide) was counted.

[3] = test system: male DIO mice (wild-type C57Bl6/J on high-fat diet); assay: Intraperitoneal glucose tolerance test in wild-type mice with diet-induced obesity; assay type: in vivo; conditions: AM3506 1 mg/kg i.p., 60 min before glucose 1.5 g/kg i.p., 1 mg/kg
Description: Male C57Bl6/J mice, wild-type or liver-specific CB1 receptor knockout, were kept on a diet containing 60% of calories as fat (Research Diets Inc) for 14 weeks, by which time both strains have become fat due to increased adipose mass. […] Sixty minutes later the mice received 1.5 g/kg glucose i.p. and blood glucose levels were monitored for 2 hours.

With `O=S(=O)(F)CCCCCc1ccc(O)cc1` [AM3506] the Ki [1] was 31 nM, the “inhibition of FAAH in liver” value ([2]; AM3506 1 mg/kg) was “devoid of inhibitory potency in liver” and the “dose equivalence in inhibition of FAAH in brain” value ([2]; AM3506 1 mg/kg versus URB597 10 mg/kg) was “equieffective with 10 mg/kg URB597”. For the same compound, the glucose intolerance [3] was “had no such effect”.
